Measurements published in paper PMC6316393, “Cytotoxic Sesterterpenes from Thai Marine Sponge Hyrtios erectus” (Marine Drugs, 2018).
Read-outs that look alike come from different tables or passages of the source.

Experiments:
[1] = test system: MOLT-3 (acute lymphoblastic leukemia); assay: XTT cytotoxicity assay, MOLT-3; details: for selectivity index (SI), MOLT-3: ratio of IC50 of normal cell (MRC-5) and IC50 of MOLT-3
Procedure: (§1) The SI value is the ratio of IC50 of normal cell (MRC-5) and IC50 of cancer cell line.
(§2) Cytotoxic activity for adhesive cell lines including HepG2, HeLa, HuCCA-1, A549, H69AR, KB, T47D, MDA-MB-231, and MRC-5 cell lines were evaluated with the 3-(4,5-dimethylthiazol-2-yl)-2,5-diphenyltetrazoliumbromide (MTT) assay. For the non-adhesive MOLT-3 cell line, the cytotoxicity was assessed using the 2,3-bis-(2-methoxy-4-nitro-5-sulphenyl-(2H)-tetrazolium-5-carboxanilide (XTT) assay. Etoposide and doxorubicin were used as positive controls (Table 4)

[2] = test system: HepG2 (hepatocarcinoma); assay: MTT cytotoxicity assay, HepG2
Procedure: as §1, §2

[3] = test system: A549 (non-small-cell lung cancer); assay: MTT cytotoxicity assay, A549
Procedure: as §1, §2

[4] = test system: HuCCA-1 (human chlolangiocarcinoma); assay: MTT cytotoxicity assay, HuCCA-1
Procedure: as §1, §2

[5] = test system: HeLa (human cervical carcinoma); assay: MTT cytotoxicity assay, HeLa
Procedure: as §1, §2

[6] = test system: L1210 (mouse lymphocytic leukemia); details: read-out: Cytotoxicity IC50, L1210, cited from earlier work
[7] = test system: MDA-MB-231 (hormone independent breast cancer); assay: MTT cytotoxicity assay, MDA-MB-231
Procedure: as §1, §2

[8] = test system: KB (human epidermoid carcinoma in the mouth); assay: MTT cytotoxicity assay, KB; assay type: cell-based; details: KB cell line
Procedure: as §1, §2

[9] = test system: T47D (hormone dependent breast cancer); assay: MTT cytotoxicity assay, T47D; assay type: cell-based; details: Homo sapiens, T47D cell line
Procedure: (§3) Cytotoxic activity for adhesive cell lines including HepG2, HeLa, HuCCA-1, A549, H69AR, KB, T47D, MDA-MB-231, and MRC-5 cell lines were evaluated with the 3-(4,5-dimethylthiazol-2-yl)-2,5-diphenyltetrazoliumbromide (MTT) assay [25, 26]. For the non-adhesive MOLT-3 cell line, the cytotoxicity was assessed using the 2,3-bis-(2-methoxy-4-nitro-5-sulphenyl-(2H)-tetrazolium-5-carboxanilide (XTT) assay [27]. Etoposide and doxorubicin were used as positive controls (Table 4)

[10] = test system: H69AR (multidrug resistance small-cell lung cancer); assay: MTT cytotoxicity assay, H69AR; assay type: cell-based; details: Homo sapiens, H69AR cell line
Procedure: as §3

[11] = test system: KB (mouth epidermal carcinoma); parameters: method as in PMID 8149454; details: previously reported; read-out: Cytotoxicity IC50, KB; cited from earlier work
[12] = test system: A549 cells; parameters: method as in PMID 12662110; details: reported in the literature; read-out: Cytotoxicity IC50, A549; cited from earlier work
[13] = MTT cytotoxicity assay, MRC-5 normal cells; details: human
Procedure: as §1, §2

[14] = test system: MRC-5 (normal embryonic lung cell); assay: MTT cytotoxicity assay, MRC-5 normal cells; details: read-out: Cytotoxicity IC50, MRC-5; MRC-5 normal cell line, MTT assay
Procedure: as §1, §2

[15] = Homo sapiens, MOLT-3, read-out: Cytotoxicity IC50, MOLT-3, MOLT-3 cell line, XTT assay
[16] = Homo sapiens, HepG2, read-out: Cytotoxicity IC50, HepG2, HepG2 cell line, MTT assay
[17] = Homo sapiens, A549, read-out: Cytotoxicity IC50, A549, A549 cell line, MTT assay
[18] = Homo sapiens, HuCC-A1, read-out: Cytotoxicity IC50, HuCCA-1, HuCCA-1 cell line, MTT assay
[19] = Homo sapiens, HeLa, read-out: Cytotoxicity IC50, HeLa, HeLa cell line, MTT assay
[20] = Homo sapiens, MDA-MB-231, read-out: Cytotoxicity IC50, MDA-MB-231, MDA-MB-231 cell line, MTT assay
[21] = Homo sapiens, MOLT-3, read-out: Cytotoxicity IC50, MOLT-3
[22] = Homo sapiens, HepG2, read-out: Cytotoxicity IC50, HepG2
[23] = Homo sapiens, A549, read-out: Cytotoxicity IC50, A549
[24] = Homo sapiens, HuCC-A1, read-out: Cytotoxicity IC50, HuCCA-1
[25] = Homo sapiens, MDA-MB-231, read-out: Cytotoxicity IC50, MDA-MB-231
[26] = Homo sapiens, HeLa, read-out: Cytotoxicity IC50, HeLa
[27] = MRC-5 cells (normal embryonic lung cells), Cytotoxicity IC50, MRC-5, MRC-5 normal cell line, MTT assay
[28] = read-out: Cytotoxicity IC50, MDA-MB-231, MDA-MB-231 cell line, MTT assay
[29] = read-out: Cytotoxicity IC50, HeLa, HeLa cell line, MTT assay

Row | Molecule | IC50 [1, 15] [µM] | IC50 [2, 16] | IC50 [3, 17] | IC50 [4, 18] | IC50 [5, 19] | IC50 [7, 20] | other results
1 | CC(=O)O[C@@H]1CC2[C@@]3(C)CCCC(C)(C)C3CC[C@@]2(C)C2CC=C3C(=O)OC(O)C3[C@]21C (stereo partly drawn) [Compound 19, 12-epi-scalarin] | 13.8 | 75.5 µM | 60.8 µM | 60.8 µM | 65.3 µM |  | 
2 | CC1=C(CC/C(C)=C/CC/C(=C\CC2OC(=O)C=C2CO)CO)C(C)(C)CCC1 (stereo not drawn) [Compound 12, (6E)-neomanoalide] | 37.8 | > 50 µg/mL | > 50 µg/mL | 119 µM | 79.2 µM | > 50 µg/mL | IC50 [6]: 24.4 µM
3 | CC(=O)O[C@H]1C[C@H]2[C@]3(C)CC[C@H]4C(C)(C)CCC[C@]4(C)[C@H]3C[C@@H](O)[C@]2(C)c2cocc21 [Compound 15, scalarafuran] |  |  |  | 49.1 µM | 63.1 µM | 14 µM | IC50 [8]: 58.4 µM; IC50 [9]: 28 µM; IC50 [10]: 51.4 µM
4 | COC1OC(=O)C=C1C(O)CC=C(C=O)CCC=C(C)CCC1=C(C)CCCC1(C)C (stereo not drawn) [Compound 3, seco-manoalide-25-methyl ether] | 15.8 | 27.9 µM | 41.1 µM | 24.7 µM | 20 µM | 40.1 µM | 
5 | CC1=C(CC[C@@](C)(O)[C@@H]2CCC(=O)O2)C(C)(C)CCC1 [Compound 16, cavernosine] | 124 | > 50 µg/mL | > 50 µg/mL | > 50 µg/mL | 77.5 µM | > 50 µg/mL | 
6 | CC1=C(CC/C(C)=C/CCC2=CC[C@H](C3=CC(=O)O[C@H]3O)O[C@H]2O)C(C)(C)CCC1 [Compound 11, manoalide] |  |  |  |  |  |  | IC50 [11]: 0.63 µM; IC50 [1, 21]: 17.4 µM; IC50 [2, 22]: > 50 µg/mL; IC50 ([6]; previously reported): 0.053 µM; IC50 [3, 23]: > 50 µg/mL; IC50 [4, 24]: 84.5 µM; IC50 [7, 25]: > 50 µg/mL; IC50 [5, 26]: 87 µM
7 | COc1cc([C@@H]2c3cc4c(cc3[C@@H](O[C@@H]3O[C@@H]5CO[C@@H](C)O[C@H]5[C@H](O)[C@H]3O)[C@H]3COC(=O)[C@H]23)OCO4)cc(OC)c1O [Etoposide, reference compound] | 0.04 ± 0.01 |  |  |  |  |  | 
8 | CC(=O)OC/C(=C\CC1OC(=O)C=C1CO)CC/C=C(\C)CCC1=C(C)CCCC1(C)C (stereo not drawn) [Compound 7, (6Z)-neomanoalide-24-acetate] | 40.1 | > 50 µg/mL | > 50 µg/mL | > 50 µg/mL | 88 µM | > 50 µg/mL | 
9 | CC1(C)CCC[C@@]2(C)C1CC[C@]1(C)C2C[C@@H](O)[C@]2(C)C3COC(=O)C3=CCC12 (stereo partly drawn) [Compound 18, 12-epi-O-deacetyl-19-deoxyscalarin] |  |  |  | 41.5 µM | 23.3 µM | 5.96 µM | IC50 [8]: 6.99 µM; IC50 [9]: 5.18 µM; IC50 [10]: 57 µM
10 | CC1=C(CC/C(C)=C/CC/C(=C/CC2OC(=O)C=C2CO)CO)C(C)(C)CCC1 (stereo not drawn) [Compound 13, (6Z)-neomanoalide] | 34.1 | 88.7 µM | 114 µM | 94.7 µM | 59.3 µM | 92 µM | IC50 [6]: 13.9 µM
11 | CC1(C)CCC[C@@]2(C)C1CC[C@]1(C)C2C[C@@H](O)[C@]2(C)C3C(=CCC12)C(=O)OC3O (stereo partly drawn) [Compound 20, 12-O-deacetyl-12-epi-scalarin] | 7.64 | 27.4 µM | 73.4 µM | 87.1 µM |  |  | selectivity index (SI), MOLT-3 [1]: 9; IC50 [12]: 36.8 µM; IC50 [13, 27]: 71 µM
12 | 4-((2R)-2-hydroxy-16-methyloctadecyl)furan-2(5H)-one [Compound 5] |  |  |  |  |  |  | IC50 [1]: 31.8 µM; IC50 [2]: 107 µM; IC50 [3]: 57.2 µM; IC50 [4]: 65.6 µM; IC50 [7]: 89.3 µM; IC50 [5]: 28.8 µM
13 | COC1OC(C2=CC(=O)OC2O)CC=C1CCC=C(C)CCC1=C(C)CCCC1(C)C (stereo not drawn) [Compound 9, 24-O-methylmanoalide] |  |  |  |  |  |  | selectivity index (SI), MOLT-3 [1]: 8; IC50 ([1]; read-out: Cytotoxicity IC50, MOLT-3, MOLT-3 cell line, XTT assay): 1.3 µM; IC50 ([2]; read-out: Cytotoxicity IC50, HepG2, HepG2 cell line, MTT assay): 27.9 µM; IC50 ([3]; read-out: Cytotoxicity IC50, A549, A549 cell line, MTT assay): 12 µM; IC50 [14]: 10.8 µM; IC50 ([4]; read-out: Cytotoxicity IC50, HuCCA-1, HuCCA-1 cell line, MTT assay): 8.6 µM; IC50 [7, 28]: 18.6 µM; selectivity index (SI), HeLa ([5]; ratio of IC50 of normal cell (MRC-5) and IC50 of HeLa): 7; IC50 [5, 29]: 1.51 µM
14 | CC1=C(CC/C(C)=C/CC/C(=C/C[C@@H](O)C2=CC(=O)OC2)CO)C(C)(C)CCC1 [Compound 10, luffariolide B] | 35.5 | > 50 µg/mL | > 50 µg/mL | > 50 µg/mL | 78.7 µM | > 50 µg/mL | IC50 [6]: 3.23 µM
15 | COC(=O)c1cc2c(cn1)[nH]c1ccc(O)cc12 [Compound 23, variabine B] | 78 | > 50 µg/mL | > 50 µg/mL | > 50 µg/mL | > 50 µg/mL |  | 
16 | COc1cccc2c1C(=O)c1c(O)c3c(c(O)c1C2=O)C[C@@](O)(C(=O)CO)C[C@@H]3O[C@H]1C[C@H](N)[C@H](O)[C@H](C)O1 [Doxorubicin, reference compound] |  | 0.36 ± 0.05 µM | 0.35 ± 0.02 µM | 0.4 ± 0.03 µM | 0.19 µM | 1.64 ± 0.17 µM | IC50 [8]: 1.64 ± 0.15 µM; IC50 [13, 27]: 3.16 ± 0.1 µM
17 | COC1OC(C2=CC(=O)OC2O)CC=C1CCC=C(C)CCC1=C(C)CCCC1(C)C (stereo not drawn) [Compound 8, 24-O-methylmanoalide] | 1.77 | 53.5 µM | 16.8 µM | 11 µM |  |  | selectivity index (SI), MOLT-3 [1]: 7; IC50 [13, 27]: 13 µM; IC50 [7, 28]: 39.5 µM; IC50 [5, 29]: 8.42 µM
18 | CC1=C(CC/C(C)=C/CC/C(C=O)=C\C[C@@H](O)C2=CC(=O)OC2O)C(C)(C)CCC1 (stereo partly drawn) [Compound 14, seco-manoalide] |  |  |  |  |  |  | IC50 [1, 21]: 6.68 µM; IC50 [2, 22]: 102 µM; IC50 [3, 23]: 58.1 µM; IC50 [13]: 17.5 µM; IC50 [4, 24]: 47.4 µM; IC50 [7, 25]: 84.1 µM; IC50 [5, 26]: 21.8 µM
19 | CC(=O)O[C@@H]1CC2[C@@]3(C)CCCC(C)(C)C3CC[C@@]2(C)C2CCC3=C(C(=O)OC3)[C@]21C (stereo partly drawn) [Compound 17, 12-acetylscalarolide] |  |  |  | 60.8 µM | 63.1 µM | 60.8 µM | IC50 [8]: 63.1 µM; IC50 [9]: 42.1 µM; IC50 [10]: 107 µM
